A short description of assay [1]: Binding affinity to double strand CGCG12 DNA by fluorescence titration.
A short description of assay [2]: Stabilization of double strand CGCG12 DNA assessed as change in melting temperature.
A short description of assay [3]: Binding affinity to double strand AATT12 DNA by fluorescence titration.
Assay [4] can be described thus: Stabilization of double strand AATT12 DNA assessed as change in melting temperature.

On to `[N-]=[N+]=NCCCNc1c2ccccc2nc2ccccc12`, for which the Ks in assay [1] is 2 ×10⁵ /M; in assay [3] it was 1.6 ×10⁵ /M. Also, the ΔTm in assay [2] came to 2 °C; in assay [4], 3.1 °C.

For the compound `C#CCCCC(=O)N1CCC[C@H]1C(=O)N[C@@H](CCCNC(=N)N)C(=O)NCC(=O)N[C@@H](CCCNC(=N)N)CN1CCC[C@H]1C(N)=O`, the ΔTm in assay [2] and in assay [4] was 0 °C in each case. In assay [3], the Ks stood at 0.01 ×10⁵ /M.

Consider `N=C(N)NCCC[C@@H](CN1CCC[C@H]1C(N)=O)NC(=O)CNC(=O)[C@H](CCCNC(=N)N)NC(=O)[C@@H]1CCCN1C(=O)CCCc1cn(CCCNc2c3ccccc3nc3ccccc23)nn1`, for which the Ks in assay [1] was determined as 3.6 ×10⁵ /M; in assay [3], 7.3 ×10⁵ /M. In addition, the ΔTm in assay [2] came to 3.9 °C; in assay [4], 8.1 °C.

Values taken from ChEMBL document CHEMBL1141725, “DNA-templated click chemistry for creation of novel DNA binding molecules” (Bioorg Med Chem Lett, 2008).
